Consider one molecule from patent EP4656179A1, “COMPOSITION CONTAINING STREPTOCOCCUS SP. STRAIN FOR PREVENTION, ALLEVIATION, OR TREATMENT OF SKIN DISEASES” (Cosmax, Inc., priority 2023, dated 2024).

What all share (assay type): cell-based, human
Common to all, as to details: HaCaT cells, IFN-γ 10 ng/mL; 1, 10, and 100 ppm; 24 hours; GAPDH as standard

The test system of experiment [1] is CCL17. Nature of the experiment: Marker gene expression in IFN-γ atopic dermatitis cell model (HaCaT), real-time PCR: CCL17. The method, then:
(§1) To verify the effect of the Cyclo(Gly-Pro) of alleviating atopic dermatitis, an in vitro efficacy evaluation was conducted.
(§2) First, human keratinocytes, HaCaT cells, were purchased from the American Type Culture Collection (ATCC; Manassas, VA, USA) and cultured in DMEM (HyClone, Logan, UT, USA) supplemented with 10 % FBS (HyClone) and 1 % antibiotic-antimycotic solution (Welgene, Daegu, Korea). The cells were maintained at 37 °C in a 5 % CO2 incubator. After isolating the cells using trypsinization, 4 x 10^5 cells were added to each well of a 6-well plate. After 1 day of cell attachment, the culture was replaced with a serum-free medium and treated with IFN-γ (Sigma Aldrich, St. St. Louis, MO, USA) at a concentration of 10 ng/mL to induce an environment similar to atopic dermatitis. As a positive control group, 1 µM dexamethasone (Sigma Aldrich) was used. As experimental groups, the cells were treated with Cyclo(Gly-Pro) (Biosynth Ltd, Berkshire, UK) at concentrations of 1, 10, and 100 ppm. […]
(§3) The cDNA amplification was performed by 40 cycles of amplification, wherein each cycle has the following conditions: 50 °C for 2 minutes, 95 °C for 10 minutes, 40 cycles of 95°C for 10 seconds, and 60°C for 1 minute. GAPDH was used as an ISTD material, and the mRNA expression levels were expressed as relative values compared to the negative control group. […]

For experiment [2], the system named is CCL22. Put plainly: Marker gene expression in IFN-γ atopic dermatitis cell model (HaCaT), real-time PCR: CCL22. On the procedure: as §1, §2, §3
For experiment [3], the system named is IL-13. Nature of the experiment: Marker gene expression in IFN-γ atopic dermatitis cell model (HaCaT), real-time PCR: IL-13. The method, then:
as §1, §2, §3

The subject of experiment [4] is IL-22. Put plainly: Marker gene expression in IFN-γ atopic dermatitis cell model (HaCaT), real-time PCR: IL-22. The method, then:
as §1, §2, §3

Experiment [5] has as its system sIL-2R. Nature of the experiment: Marker gene expression in IFN-γ atopic dermatitis cell model (HaCaT), real-time PCR: sIL-2R. The method, then: as §1, §2, §3
For experiment [6], the system named is IL-31. Put plainly: Marker gene expression in IFN-γ atopic dermatitis cell model (HaCaT), real-time PCR: IL-31. On the procedure:
as §1, §2, §3

The subject of experiment [7] is filaggrin (FLG). Nature of the experiment: Marker gene expression in IFN-γ atopic dermatitis cell model (HaCaT), real-time PCR: filaggrin. On the procedure:
as §1, §2, §3

Structures are written as SMILES.

As to `O=C1NCC(=O)N2CCCC12` (stereo not shown) [Cyclo(Gly-Pro), hexahydropyrrolo[1,2-a]pyrazine-1,4-dione], in experiment [1], the “relative expression levels of CCL17” value was “decreased”. Moreover, the “relative expression levels of CCL22” value in experiment [2] was “decreased”. Besides, the “relative expression levels of IL-13” value in experiment [3] is “decreased”. Besides, the “relative expression levels of IL-22” value in experiment [4] was “decreased”. The “relative expression levels of sIL-2R” value in experiment [5] is recorded as “decreased”. Further, the “relative expression levels of IL-31” value in experiment [6] is reported as “decreased”. For the same molecule, the “relative expression levels of filaggrin (FLG)” value in experiment [7] is recorded as “increased”.
